From US12649735B2 (HAIHE BIOPHARMA CO., LTD., priority 2019, dated 2026)

What was measured:
[1] = target: T1, bromodomain protein BRD4 BD1 (Homo sapiens, UniProt O60885); test: HTRF in vitro assay, inhibitory activity against BRD4 BD1; type: binding; details: BRD4(1) 30 nM in final system
T1 construct: The proteins BRD4 BD1/BD2 used in the experiment were purchased from Active Motif Company (Cat. No. 31380/31446); purchased Active Motif 31380
Protocol: In this example, the half inhibitory activity (IC50) of the compounds of the present invention against the bromodomain protein BRD4 BD1 was determined.
(§1) The inhibitory activity of the compound against BRD4 BD1 was determined by using Homogeneous Time-Resolved Fluorescence (HTRF).
(§2) The proteins BRD4 BD1/BD2 used in the experiment were purchased from Active Motif Company (Cat. No. 31380/31446); Streptavidin XL-665 (#610SAXLA) and EPIgeneous Binding Domain Kit A (#62BDAPEG) were purchased from Cisbio Bioassays Company, [Lys(5,8,12,16)Ac]H4(1-21)-biotin (#64989), and [Lys(5,8,12,16)Ac]H4(1-25) were products of AnaSpec company; OTX015 and ABBV-075 were purchased from SelleckChem. 384 Well ProxiPlate (#6008280) was purchased from PerkinElmer. The multifunctional microplate reader used for the experimental was a product of PerkinElmer, model: Envision 2104. The experimental water was Millipore-Q pure water.
(§3) 10 mM of stock solution of compound in DMSO was diluted to 1 mM with DMSO and stored, and then diluted 10 times with Binding Domain dilution buffer (purchased from Cisbio Bioassays) for use (the concentration of DMSO in the final system was […]), 1:5 gradient dilution, a total of 5 concentrations.
(§4) 4. Test Method: 1 Batch, 2 Duplicate Wells
(§5) • 1) 5 μL of test compound was transferred to 45 μL of Binding Domain dilution buffer. • 2) 2 μL of 10× compound (4 μL Binding Domain dilution buffer: positive control; 6 μL enzyme buffer (purchased from Cisbio Bioassays): negative control) was transferred to the reaction plate. • 3) 4 μL of 5×BRD4(1) or BRD4(2) (30 nM in final system) was added to the reaction plate. • 4) 4 μL of 5×[Lys(5,8,12,16)Ac]H4(1-21)-biotin was added to the reaction plate, and the plate was covered with a film, and incubated at 37° C. for 30 min. • 5) A detection mixture of SA-XL665 (2×) and anti-H3K9me0-Eu(K) (2×) was prepared in detection buffer (purchased from Cisbio Bioassays). • 6) 10 μL of detection mixture (2×) was added to each well, and incubated for 3 h at room temperature, and the mp value was read using a multi-plate reader Envision. The parameters were set as follows.

[2] = target: T2, bromodomain protein BRD4 BD2 (Homo sapiens, UniProt O60885); test: HTRF in vitro assay, inhibitory activity against BRD4 BD2; type: binding; details: BRD4(2) 30 nM in final system
T2 construct: The proteins BRD4 BD1/BD2 used in the experiment were purchased from Active Motif Company (Cat. No. 31380/31446); purchased Active Motif 31446
Protocol: as §1, §2, §3, §4, §5

Row | Compound | IC50 [1] [nM] | IC50 [2] [nM]
1 | Cn1cc(Oc2ccccc2)c2cc(-c3cnn(C4COC4)c3)[nH]c2c1=O [Compound A68, 6-methyl-2-(1-(oxetan-3-yl)-1H-pyrazol-4-yl)-4-phenoxy-1,6-dihydro-7H-pyrrolo[2,3-c]pyridin-7-one] | 100 to 1000 | 10 to 100
2 | CCNC(=O)c1cc2c(-c3cc(CO)c4ccccc4c3C3CC3)cn(C)c(=O)c2[nH]1 [Compound A32, 4-(1-cyclopropyl-4-(hydroxymethyl)naphthalen-2-yl)-N-ethyl-6-methyl-7-oxo-6,7-dihydro-1H-pyrrolo[2,3-c]pyridin-2-carboxamide] | 10 to 100 | ≤ 10
3 | 6-methyl-7-carbonyl-4-(1-phenylethyl)-N-(1H-pyrazol-4-yl)-6,7-dihydro-1H-pyrrolo[2,3]pyridin-2-carboxamide [Compound A7] | 100 to 1000 | ≤ 10
4 | Cc1ccc(C2CCC(=O)N2c2cn(C)c(=O)c3[nH]c(-c4cnn(C)c4)cc23)cc1 (stereo not drawn) [Compound A48, 6-methyl-2-(1-methyl-1H-pyrazol-4-yl)-4-(2-oxo-5-(p-tolyl)pyrrolidin-1-yl)-1,6-dihydro-7H-pyrrolo[2,3-c]pyridin-7-one] | 100 to 1000 | 10 to 100
5 | CC(c1ccc2ccccc2c1)c1cn(C)c(=O)c2[nH]c(C(=O)Nc3cnn(C)c3)cc12 (stereo not drawn) [Compound A13] | 100 to 1000 | ≤ 10
6 | CC(c1ccccc1)c1cn(C)c(=O)c2[nH]c(-c3ccnc(C(F)(F)F)c3)cc12 (stereo not drawn) [Compound A16, 6-methyl-4-(1-phenethyl)-2-(2-(trifluoromethyl)pyridin-4-yl)-1,6-dihydro-7H-pyrrolo[2,3-c]pyridin-7-one] | 100 to 1000 | 10 to 100
7 | COc1ccc(C(C)c2cn(C)c(=O)c3[nH]c(-c4cnn(C5COC5)c4)cc23)cc1 (stereo not drawn) [Compound A73, 4-(1-(4-methoxyphenyl)ethyl)-6-methyl-2-(1-(oxetan-3-yl)-1H-pyrazol-4-yl)-1,6-dihydro-7H-pyrrolo[2,3-c]pyridin-7-one] | 100 to 1000 | ≤ 10
8 | CCNC(=O)c1cc2c(-c3nc4ncccc4n3-c3c(C)cccc3C)cn(C)c(=O)c2[nH]1 [Compound A31, 4-(1-(2,6-dimethylphenyl)-1H-imidazo[4,5-b]pyridin-2-yl)-N-ethyl-6-methyl-7-oxo-6,7-dihydro-1H-pyrrolo[2,3-c]pyridin-2-carboxamide] | 10 to 100 | ≤ 10
9 | CCNC(=O)c1cc2c(-c3c(C(=O)NCC)cnn3C(C)c3ccccc3)cn(C)c(=O)c2[nH]1 (stereo not drawn) [Compound A35, N-ethyl-4-(4-(ethylcarbamoyl)-1-(1-phenylethyl)-1H-pyrazol-5-yl)-6-methyl-7-oxo-6,7-dihydro-1H-pyrrolo[2,3-c]pyridin-2-carboxamide] | 100 to 1000 | 10 to 100
10 | CC(c1cccc(Cl)c1F)c1cn(C)c(=O)c2[nH]c(-c3cnn(C4COC4)c3)cc12 (stereo not drawn) [Compound A75, 4-(1-(3-chloro-2-fluorophenyl)ethyl)-6-methyl-2-(1-(oxetan-3-yl)-1H-pyrazol-4-yl)-1,6-dihydro-7H-pyrrolo[2,3-c]pyridin-7-one] | 100 to 1000 | ≤ 10
11 | CC(c1ccccc1)c1cn(C)c(=O)c2[nH]c(-c3cnn(C4COC4)c3)cc12 (stereo not drawn) [Compound A17, 6-methyl-2-(1-(oxetan-3-yl)-1H-pyrazol-4-yl)-4-(1-phenethyl)-1,6-dihydro-7H-pyrrolo[2,3-c]pyridin-7-one] | 100 to 1000 | ≤ 10
12 | CC(c1ccccc1)c1cn(C)c(=O)c2cc(-c3n[nH]cc3N)oc12 (stereo not drawn) [Compound A58, 2-(4-amino-1H-pyrazol-3-yl)-5-methyl-7-(1-phenethyl)furo[3,2-c]pyridin-4(5H)-one] | 100 to 1000 | ≤ 10
13 | CCNC(=O)c1cc2c(-c3nc4ncccc4n3-c3cc(C)c(F)c(C)c3)cn(C)c(=O)c2[nH]1 [Compound A30, N-ethyl-4-(1-(4-fluoro-3,5-dimethylphenyl)-1H-imidazo[4,5-b]pyridin-2-yl)-6-methyl-7-oxo-6,7-dihydro-1H-pyrrolo[2,3-c]pyridin-2-carboxamide] | 10 to 100 | ≤ 10
14 | Cc1nocc1-c1cc2c(C(C)c3ccccc3)cn(C)c(=O)c2[nH]1 (stereo not drawn) [Compound A21] | 100 to 1000 | 10 to 100
15 | CC(c1ccccc1)c1cn(C)c(=O)c2[nH]c(C(=O)NC3CC3)cc12 (stereo not drawn) [Compound A8, N-cyclopropyl-6-methyl-7-oxo-4-(1-phenethyl)-6,7-dihydro-1H-pyrrolo[2,3-c]pyridin-2-carboxamide] | 100 to 1000 | ≤ 10
16 | CC(c1ccc(O)cc1)c1cn(C)c(=O)c2[nH]c(-c3cnn(C4COC4)c3)cc12 (stereo not drawn) [Compound A72, 4-(1-(4-hydroxyphenyl)ethyl)-6-methyl-2-(1-(oxetan-3-yl)-1H-pyrazol-4-yl)-1,6-dihydro-7H-pyrrolo[2,3-c]pyridin-7-one] | 100 to 1000 | 10 to 100
17 | CC(c1ccccc1)c1cn(C)c(=O)c2cc(-c3cn(C)nc3[N+](=O)[O-])sc12 (stereo not drawn) [Compound A41, 5-methyl-2-(1-methyl-3-nitro-1H-pyrazol-4-yl)-7-(1-phenylethyl)thieno[3,2-c]pyridin-4(5H)-one] | 100 to 1000 | 100 to 1000
18 | CCNC(=O)c1cc2c(Cc3ccccc3)cn(C)c(=O)c2[nH]1 [Compound A10, 4-benzyl-N-ethylamino-6-methyl-7-oxo-6,7-dihydro-1H-pyrrolo[2,3-c]pyridin-2-carboxamide] | 100 to 1000 | 10 to 100
19 | CCNC(=O)c1cc2c(C(O)c3c(C)cccc3C)cn(C)c(=O)c2[nH]1 (stereo not drawn) [Compound A23, (4-(2,6-dimethylphenyl)(hydroxy)methyl)-N-ethyl-6-methyl-7-oxo-6,7-dihydro-1H-pyrrolo[2,3-c]pyridin-2-carboxamide] | 100 to 1000 | 10 to 100
20 | CC(c1ccccc1)c1cn(C)c(=O)c2c(C(=O)O)c(-c3cnn(C)c3)oc12 (stereo not drawn) [Compound A60, 5-methyl-2-(1-methyl-1H-pyrazol-4-yl)-4-oxo-7-(1-phenethyl)-4,5-dihydrofuro[3,2-c]pyridin-3-carboxylic acid] | 100 to 1000 | 10 to 100
21 | CCNC(=O)c1cc2c(-c3cc(C(C)(C)O)c4cccnc4c3C)cn(C)c(=O)c2[nH]1 [Compound A40, N-ethyl-4-(5-(2-hydroxypropan-2-yl)-8-methylquinolin-7-yl)-6-methyl-7-oxo-6,7-dihydro-1H-pyrrolo[2,3-c]pyridin-2-carboxamide] | 10 to 100 | ≤ 10
22 | Cc1cc(F)cc(C)c1-n1c(-c2cn(C)c(=O)c3[nH]c(C(=O)Nc4ccn(C)n4)cc23)nc2ncccc21 [Compound A52] | 10 to 100 | ≤ 10
23 | CC(c1ccccc1)c1cn(C)c(=O)c2[nH]c(-c3c[nH]cn3)cc12 (stereo not drawn) [Compound A47] | 10 to 100 | ≤ 10
24 | CCNC(=O)c1cc2c(C(O)c3ccc4c(ccn4C)c3)cn(C)c(=O)c2[nH]1 (stereo not drawn) [Compound A39, N-ethyl-4-(hydroxy(1-methyl-1H-indol-5-yl)methyl)-6-methyl-7-oxo-6,7-dihydro-1H-pyrrolo[2,3-c]pyridin-2-carboxamide] | 100 to 1000 | 10 to 100
25 | CCNC(=O)c1cc2c(C(C)c3ccc4ccccc4c3)cn(C)c(=O)c2[nH]1 (stereo not drawn) [Compound A25] | 100 to 1000 | 10 to 100
26 | CC(c1ccccc1)c1cn(C)c(=O)c2[nH]c(-c3ccoc3)cc12 (stereo not drawn) [Compound A46] | 10 to 100 | ≤ 10
27 | Cn1ccc(NC(=O)c2cc3c(-c4nc5ncccc5n4-c4ccccc4)cn(C)c(=O)c3[nH]2)n1 [Compound A53] | 100 to 1000 | 10 to 100
28 | CC(c1ccccc1)c1cn(C)c(=O)c2cc(-c3cn(C)nc3N)sc12 (stereo not drawn) [Compound A42, 2-(3-amino-1-methyl-1H-pyrazol-4-yl)-5-methyl-7-(1-phenylethyl)thieno[3,2-c]pyridin-4(5H)-one] | 100 to 1000 | 10 to 100
29 | CC(c1ccccc1)c1cn(C)c(=O)c2[nH]c(-c3cn[nH]c3)cc12 (stereo not drawn) [Compound A15, 6-methyl-4-(1-phenethyl)-2-(1H-pyrazol-4-yl)-1,6-dihydro-7H-pyrrolo[2,3-c]pyridin-7-one] | 100 to 1000 | ≤ 10
30 | Cn1cc2c(Cc3ccccc3)cn(C)c(=O)c2c1 [Compound A2] | 100 to 1000 | 10 to 100
